Source: US20190142800A1, “SYNERGISTIC ANTIFUNGAL COMPOSITIONS AND METHODS THEREOF” (VYOME THERAPEUTICS LIMITED, priority 2016, published 2019)
Values belong to the molecule of their own block, whether it stands above or below them.

Key:
[1] = system: terbinafine resistant Trichophyton interdigitale (GTB-2S); assay: Checkerboard assay on terbinafine resistant Trichophyton interdigitale (GTB-2S); type: cell-based
Experimental: (§1) The synergy is measured by determining the fractional inhibitory concentration (FIC) value of the combination. This experimental set up, called checkerboard method, allows measurement of a desired effect (inhibition of fungal growth in this case) at different combinations of various concentrations of the two agents (antifungal agent and fatty acid/ester). […] No agent is added to the penultimate column on the right and the bottom row. The final column on the right is used for growth control (only inoculum in broth) and sterility control (broth alone, no inoculum). […] FIC values for both agents in a particular well were calculated in this way followed by determination of the FIC index (sum of the FICs of each drug in the concerned well). […] Agents Chemother.
(§2) Using the checkerboard layout experimental setup described above (FIG. 1A), various medium-chain fatty acids were tested for their ability to potentiate the activity of a known antifungal agent. Concentrations above and below the MIC of each test agent were tested using serial dilution. The same procedure was expanded to test combinations of various medium-chain fatty acids C-1 to C-14 (such caprylic acid, undecylenic acid and lauric acid) and esters thereof, with antifungal agents from various classes including azoles, allylamines, benzylamines, zinc pyrithione and piroctone olamine against both susceptible and resistant Trichophyton spp. (filamentous fungus) and Candida spp. (yeast).
(§3) Potentiation of the activity of antimycotic agents using ester derivatives of medium chain fatty acids was tested in a standard, well accepted in vitro assay system to check for synergy. This experimental set up, called checkerboard method, allows measurement of a desired effect (inhibition of fungal growth in this case) at different combinations of various concentrations of two agents. A chosen medium chain fatty acid (C-1 to C-14) or its ester derivative was tested for its ability to potentiate the activity of a known antifungal agent (various classes) using the checkerboard layout. Various concentrations above and below the MIC of each test agent were tested using serial dilution in Sabouraud dextrose broth. […] FIC values for both test agents in a particular well are calculated in this way followed by determination of the FIC index (sum of the FICs of each drug in the concerned well).

[2] = system: Trichophyton rubrum (ATCC-28188); assay: Checkerboard assay of fatty acid/ester with antifungals on Trichophyton rubrum (ATCC 28188); type: cell-based; parameters: key to FIC index: FIC index = sum of FICs; FIC = agent conc in well / agent MIC; conditions: for MIC: Trichophyton rubrum, ATCC28188, agent alone
Experimental: The synergy is measured by determining the fractional inhibitory concentration (FIC) value of the combination. This experimental set up, called checkerboard method, allows measurement of a desired effect (inhibition of fungal growth in this case) at different combinations of various concentrations of the two agents (antifungal agent and fatty acid/ester). […] No agent is added to the penultimate column on the right and the bottom row. The final column on the right is used for growth control (only inoculum in broth) and sterility control (broth alone, no inoculum). […] FIC value for each agent in a particular well of the checkerboard layout was calculated by dividing the agent concentration in that well by the established MIC value of the agent against the test organism (Hsieh et al., Synergy assessed by checkerboard: A critical Analysis, Diagn. Microbiol. Infect Dis. (1993) 16:343-349). FIC values for both agents in a particular well were calculated in this way followed by determination of the FIC index (sum of the FICs of each drug in the concerned well). […] Agents Chemother. (2010) 54(2): 602-609].
as §2
Potentiation of the activity of antimycotic agents using ester derivatives of medium chain fatty acids was tested in a standard, well accepted in vitro assay system to check for synergy. This experimental set up, called checkerboard method, allows measurement of a desired effect (inhibition of fungal growth in this case) at different combinations of various concentrations of two agents. A chosen medium chain fatty acid (C-1 to C-14) or its ester derivative was tested for its ability to potentiate the activity of a known antifungal agent (various classes) using the checkerboard layout. Various concentrations above and below the MIC of each test agent were tested using serial dilution in Sabouraud dextrose broth. […] FIC value for a drug in a particular well of the checkerboard layout is calculated by dividing the drug concentration in that well by the established MIC value of the drug against the test organism (Hsieh et al., Synergy assessed by checkerboard: A critical Analysis, Diagn. Microbiol. Infect Dis. (1993) 16:343-349). FIC values for both test agents in a particular well are calculated in this way followed by determination of the FIC index (sum of the FICs of each drug in the concerned well).

[3] = system: azole resistant C. albicans MTCC 227; assay: Checkerboard assay on azole resistant C. albicans MTCC 227; type: cell-based, Candida albicans; conditions: for MIC: Candida albicans, MTCC227, agent alone
Experimental: as §1, §2, §3

[4] = in combination with caprylic acid
[5] = in combination with glyceryl monocaprylate
[6] = in combination with propylene glycol monocaprylate
[7] = Table 2, propylene glycol monocaprylate series
[8] = Table 3, glyceryl monocaprylate series
[9] = Table 5, lauric acid (C12) series
[10] = agent's MIC in combination antifungal + caprylic acid (partner: other agent of same combination no.)
[11] = agent's MIC in combination antifungal + glyceryl monocaprylate (partner: other agent of same combination no.)
[12] = agent's MIC in combination antifungal + lauric acid (partner: other agent of same combination no.)
[13] = agent's MIC in combination antifungal + propylene glycol monocaprylate (partner: other agent of same combination no.)
[14] = agent's MIC in combination antifungal + propylene glycol monolaurate (partner: other agent of same combination no.)
[15] = agent's MIC in combination antifungal + undecylenic acid (partner: other agent of same combination no.)
[16] = antifungal in combination with caprylic acid
[17] = antifungal in combination with glyceryl monocaprylate
[18] = antifungal in combination with lauric acid
[19] = antifungal in combination with propylene glycol monocaprylate
[20] = antifungal in combination with propylene glycol monolaurate
[21] = antifungal in combination with undecylenic acid
[22] = combination antifungal + caprylic acid
[23] = combination antifungal + glyceryl monocaprylate
[24] = combination antifungal + lauric acid
[25] = combination antifungal + propylene glycol monocaprylate
[26] = combination antifungal + propylene glycol monolaurate
[27] = combination antifungal + undecylenic acid
[28] = Table 9, caprylic acid (C8) series
[29] = Table 10, propylene glycol monocaprylate series
[30] = Table 11, glyceryl monocaprylate series
[31] = Table 12, undecylenic acid (C11) series
[32] = Table 13, lauric acid (C12) series
[33] = Table 14, propylene glycol monolaurate series

MIC ([1]; Trichophyton interdigitale, agent alone, Table 7): 7.5 µg/mL
Combination MIC ([1]; agent's MIC in combination terbinafine or butenafine + caprylic acid): 0.468 µg/mL
Combination MIC ([1]; agent's MIC in combination terbinafine or butenafine + glyceryl monocaprylate): 0.234 µg/mL
Combination MIC ([1]; agent's MIC in combination terbinafine or butenafine + propylene glycol monocaprylate): 0.117 µg/mL
SMILES: CN(Cc1ccc(C(C)(C)C)cc1)Cc1cccc2ccccc12 [Butenafine]
FIC ([1]; combination terbinafine or butenafine + caprylic acid): 0.0625
FIC ([1]; combination terbinafine or butenafine + glyceryl monocaprylate): 0.0312
FIC ([1]; combination terbinafine or butenafine + propylene glycol monocaprylate): 0.016
FIC index [1, 4]: 0.562
Interaction [1, 4]: Synergistic (Combinations that gave FIC indices less than 1 were designated “synergistic”)
FIC index [1, 5]: 0.531
Interaction [1, 5]: Synergistic (Combinations that gave FIC indices less than 1 were designated “synergistic”)
FIC index [1, 6]: 0.516
Interaction [1, 6]: Synergistic (Combinations that gave FIC indices less than 1 were designated “synergistic”)

MIC ([2]; Table 1, caprylic acid series): 0.125 µg/mL
MIC [2, 7]: 0.125 µg/mL
MIC [2, 8]: 0.125 µg/mL
MIC ([2]; Table 4, undecylenic acid (C11) series): 0.125 µg/mL
MIC [2, 9]: 0.125 µg/mL
MIC ([2]; Table 6, propylene glycol monolaurate series): 0.125 µg/mL
Combination MIC [2, 10]: 0.0312 µg/mL
Combination MIC [2, 11]: 0.007 µg/mL
Combination MIC [2, 12]: 0.06 µg/mL
Combination MIC [2, 13]: 0.015 µg/mL
Combination MIC [2, 14]: 0.06 µg/mL
Combination MIC [2, 15]: 0.0312 µg/mL
MIC [3, 28]: 32 µg/mL
MIC [3, 29]: 64 µg/mL
MIC [3, 30]: 32 µg/mL
MIC [3, 31]: 32 µg/mL
MIC [3, 32]: 32 µg/mL
MIC [3, 33]: 32 µg/mL
Combination MIC [3, 10]: 4 µg/mL
Combination MIC [3, 11]: 4 µg/mL
Combination MIC [3, 12]: 0.125 µg/mL
Combination MIC [3, 13]: 0.125 µg/mL
Combination MIC [3, 14]: 2 µg/mL
Combination MIC [3, 15]: 0.125 µg/mL
SMILES: CCC(C)n1ncn(-c2ccc(N3CCN(c4ccc(OCC5COC(Cn6cncn6)(c6ccc(Cl)cc6Cl)O5)cc4)CC3)cc2)c1=O (stereo not drawn) [Itraconazole]
FIC index [2, 16]: 0.5
Interaction [2, 16]: Synergistic (Combinations that gave FIC indices less than 1 were designated “synergistic”)
FIC index [2, 17]: 0.562
Interaction [2, 17]: Synergistic (Combinations that gave FIC indices less than 1 were designated “synergistic”)
FIC index [2, 18]: 0.75
Interaction [2, 18]: Synergistic (Combinations that gave FIC indices less than 1 were designated “synergistic”)
FIC index [2, 19]: 0.625
Interaction [2, 19]: Synergistic (Combinations that gave FIC indices less than 1 were designated “synergistic”)
FIC index [2, 20]: 0.6
Interaction [2, 20]: Synergistic (Combinations that gave FIC indices less than 1 were designated “synergistic”)
FIC index [2, 21]: 0.75
Interaction [2, 21]: Synergistic (Combinations that gave FIC indices less than 1 were designated “synergistic”)
FIC [2, 22]: 0.25
FIC [2, 23]: 0.0625
FIC [2, 24]: 0.5
FIC [2, 25]: 0.125
FIC [2, 26]: 0.48
FIC [2, 27]: 0.25
FIC index [3, 16]: 0.25
Interaction [3, 16]: Synergistic (Combinations that gave FIC indices less than 1 were designated “synergistic”)
FIC index [3, 17]: 0.375
Interaction [3, 17]: Synergistic (Combinations that gave FIC indices less than 1 were designated “synergistic”)
FIC index [3, 18]: 0.253
Interaction [3, 18]: Synergistic (Combinations that gave FIC indices less than 1 were designated “synergistic”)
FIC index [3, 19]: 0.064
Interaction [3, 19]: Synergistic (Combinations that gave FIC indices less than 1 were designated “synergistic”)
FIC index [3, 20]: 0.07
Interaction [3, 20]: Synergistic (Combinations that gave FIC indices less than 1 were designated “synergistic”)
FIC index [3, 21]: 0.066
Interaction [3, 21]: Synergistic (Combinations that gave FIC indices less than 1 were designated “synergistic”)
FIC [3, 22]: 0.125
FIC [3, 23]: 0.125
FIC [3, 24]: 0.003
FIC [3, 25]: 0.002
FIC [3, 26]: 0.0625
FIC [3, 27]: 0.003

MIC [2, 9]: 15.6 µg/mL
MIC [3, 32]: 3120 µg/mL
SMILES: CCCCCCCCCCCC(=O)O [Lauric acid]

MIC ([2]; Table 1, caprylic acid series): 0.312 µg/mL
MIC [2, 7]: 0.3 µg/mL
MIC [2, 8]: 0.321 µg/mL
Combination MIC [2, 10]: 0.0781 µg/mL
Combination MIC [2, 11]: 0.009 µg/mL
Combination MIC [2, 13]: 0.0375 µg/mL
MIC [3, 28]: 64 µg/mL
MIC [3, 29]: 128 µg/mL
MIC [3, 30]: 128 µg/mL
MIC [3, 31]: 128 µg/mL
MIC [3, 32]: 64 µg/mL
MIC [3, 33]: 128 µg/mL
Combination MIC [3, 10]: 0.25 µg/mL
Combination MIC [3, 11]: 2 µg/mL
Combination MIC [3, 12]: 0.25 µg/mL
Combination MIC [3, 13]: 8 µg/mL
Combination MIC [3, 14]: 32 µg/mL
Combination MIC [3, 15]: 1 µg/mL
SMILES: CC(=O)N1CCN(c2ccc(OCC3COC(Cn4ccnc4)(c4ccc(Cl)cc4Cl)O3)cc2)CC1 (stereo not drawn) [Ketoconazole]
FIC index [2, 16]: 0.5
Interaction [2, 16]: Synergistic (Combinations that gave FIC indices less than 1 were designated “synergistic”)
FIC index [2, 17]: 0.531
Interaction [2, 17]: Synergistic (Combinations that gave FIC indices less than 1 were designated “synergistic”)
FIC index [2, 19]: 0.625
Interaction [2, 19]: Synergistic (Combinations that gave FIC indices less than 1 were designated “synergistic”)
FIC [2, 22]: 0.25
FIC [2, 23]: 0.031
FIC [2, 25]: 0.125
FIC index [3, 16]: 0.253
Interaction [3, 16]: Synergistic (Combinations that gave FIC indices less than 1 were designated “synergistic”)
FIC index [3, 17]: 0.265
Interaction [3, 17]: Synergistic (Combinations that gave FIC indices less than 1 were designated “synergistic”)
FIC index [3, 18]: 0.127
Interaction [3, 18]: Synergistic (Combinations that gave FIC indices less than 1 were designated “synergistic”)
FIC index [3, 19]: 0.187
Interaction [3, 19]: Synergistic (Combinations that gave FIC indices less than 1 were designated “synergistic”)
FIC index [3, 20]: 0.281
Interaction [3, 20]: Synergistic (Combinations that gave FIC indices less than 1 were designated “synergistic”)
FIC index [3, 21]: 0.132
Interaction [3, 21]: Synergistic (Combinations that gave FIC indices less than 1 were designated “synergistic”)
FIC [3, 22]: 0.003
FIC [3, 23]: 0.0156
FIC [3, 24]: 0.003
FIC [3, 25]: 0.0625
FIC [3, 26]: 0.25
FIC [3, 27]: 0.0078
